Data reported in the supplement of paper PMC11451515.

Tested on: SEM cells
Test: cell viability relative to DMSO control; higher = less cytotoxic
Conditions: 48 h
Summary of the method: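 Library compounds in DMSO were pin-dosed in an 11-point threefold series (47 μM to 0.79 nM) onto leukemia cells in 1536-well plates (5 μl). Plates held 500 cells/well of NOMO1 or SEM or 1000 cells/well of P12-Ichikawa, each adapted for at least four passages in each medium. Luminescence was read with CellTiter-Glo One after 48 h at 37°C. Viability means the per-plate percentage relative to DMSO wells, using cell-free wells as background.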

[1] = HPLM + 10% dialyzed FBS, 0.000781 µM
[2] = HPLM + 10% dialyzed FBS, 0.00234 µM
[3] = HPLM + 10% dialyzed FBS, 0.00702 µM
[4] = HPLM + 10% dialyzed FBS, 0.0211 µM
[5] = HPLM + 10% dialyzed FBS, 0.0632 µM
[6] = HPLM + 10% dialyzed FBS, 0.19 µM
[7] = HPLM + 10% dialyzed FBS, 0.569 µM
[8] = HPLM + 10% dialyzed FBS, 1.71 µM
[9] = HPLM + 10% dialyzed FBS, 5.12 µM
[10] = HPLM + 10% dialyzed FBS, 15.4 µM
[11] = HPLM + 10% dialyzed FBS, 46.1 µM
[12] = RPMI 5 mM glucose + 10% FBS, 0.000781 µM
[13] = RPMI 5 mM glucose + 10% FBS, 0.00234 µM
[14] = RPMI 5 mM glucose + 10% FBS, 0.00702 µM
[15] = RPMI 5 mM glucose + 10% FBS, 0.0211 µM
[16] = RPMI 5 mM glucose + 10% FBS, 0.0632 µM
[17] = RPMI 5 mM glucose + 10% FBS, 0.19 µM
[18] = RPMI 5 mM glucose + 10% FBS, 0.569 µM
[19] = RPMI 5 mM glucose + 10% FBS, 1.71 µM
[20] = RPMI 5 mM glucose + 10% FBS, 5.12 µM
[21] = RPMI 5 mM glucose + 10% FBS, 15.4 µM
[22] = RPMI 5 mM glucose + 10% FBS, 46.1 µM
[23] = RPMI 5 mM glucose + 10% dialyzed FBS, 0.000781 µM
[24] = RPMI 5 mM glucose + 10% dialyzed FBS, 0.00234 µM
[25] = RPMI 5 mM glucose + 10% dialyzed FBS, 0.00702 µM
[26] = RPMI 5 mM glucose + 10% dialyzed FBS, 0.0211 µM
[27] = RPMI 5 mM glucose + 10% dialyzed FBS, 0.0632 µM
[28] = RPMI 5 mM glucose + 10% dialyzed FBS, 0.19 µM
[29] = RPMI 5 mM glucose + 10% dialyzed FBS, 0.569 µM
[30] = RPMI 5 mM glucose + 10% dialyzed FBS, 1.71 µM
[31] = RPMI 5 mM glucose + 10% dialyzed FBS, 5.12 µM
[32] = RPMI 5 mM glucose + 10% dialyzed FBS, 15.4 µM
[33] = RPMI 5 mM glucose + 10% dialyzed FBS, 46.1 µM

| SMILES | cell viability [1] [%] | cell viability [2] [%] | cell viability [3] [%] | cell viability [4] [%] | cell viability [5] [%] | cell viability [6] [%] | cell viability [7] [%] | cell viability [8] [%] | cell viability [9] [%] | cell viability [10] [%] | cell viability [11] [%] | cell viability [12] [%] | cell viability [13] [%] | cell viability [14] [%] | cell viability [15] [%] | cell viability [16] [%] | cell viability [17] [%] | cell viability [18] [%] | cell viability [19] [%] | cell viability [20] [%] | cell viability [21] [%] | cell viability [22] [%] | cell viability [23] [%] | cell viability [24] [%] | cell viability [25] [%] | cell viability [26] [%] | cell viability [27] [%] | cell viability [28] [%] | cell viability [29] [%] | cell viability [30] [%] | cell viability [31] [%] | cell viability [32] [%] | cell viability [33] [%] |
| --- | --- | --- | --- | --- | --- | --- | --- | --- | --- | --- | --- | --- | --- | --- | --- | --- | --- | --- | --- | --- | --- | --- | --- | --- | --- | --- | --- | --- | --- | --- | --- | --- | --- |
| COc1cc([C@@H]2c3cc4c(cc3[C@@H](O)C3COC(=O)C32)OCO4)cc(OC)c1O (some centres undefined) | 73.2 | 86.7 | 86 | 21.1 | 84.4 | 46.9 | 22.2 | 24.3 | 16.6 | 11.3 | 9.58 | 96.4 | 83.3 | 101 | 13.1 | 104 | 47.6 | 19.7 | 14.7 | 9.69 | 4.01 | 4.26 | 78.6 | 70.2 | 98.2 | 16.1 | 82.9 | 52.8 | 19 | 19.5 | 11.8 | 7.08 | 4.88 |
| Cc1n[nH]c2ccc(-c3cncc(OC[C@@H](N)Cc4c[nH]c5ccccc45)c3)cc12 | 98.9 | 104 | 89.8 | 97.8 | 83.7 | 40.6 | 32.9 | 19.2 | 2.11 | 0.908 | 1.79 | 94.9 | 111 | 88.6 | 102 | 95.7 | 67 | 59.7 | 25 | 2.35 | 0.602 | 1.49 | 103 | 99.4 | 84.2 | 92.3 | 89 | 56.1 | 47.7 | 26.6 | 2.83 | 0.892 | 1.9 |
| CN(C)[C@H]\1[C@@H]2[C@@H](O)[C@H]3\C(=C(O)/[C@]2(O)C(=O)\C(=C1O)C(N)=O)C(=O)C4=C(C=CC=C4O)[C@@]3(C)O | 100 | 95.3 | 99.4 | 98.8 | 98.9 | 106 | 105 | 103 | 117 | 106 | 95.7 | 102 | 123 | 121 | 125 | 115 | 114 | 129 | 121 | 104 | 133 | 118 | 113 | 121 | 121 | 118 | 125 | 124 | 115 | 114 | 122 | 118 | 118 |
| C=C1C(=O)O[C@@H]2[C@H]3O[C@]3(C)CC/C=C(\C)CC[C@@H]12 | 96.1 | 99.9 | 122 | 104 | 116 | 115 | 98.5 | 40.5 | 4.45 | 3.12 | 4 | 81.4 | 84.9 | 103 | 93.9 | 87.6 | 73 | 69.5 | 19.9 | 2.98 | 1.9 | 2.67 | 104 | 97 | 102 | 114 | 106 | 105 | 95.9 | 42.4 | 3.46 | 1.79 | 3.03 |
| CC1(C)CCC(=C(\C1)C2=CC=C(Cl)C=C2)/CN3CCN(CC3)C4=CC(=C(C=C4)C(=O)N[S+]([O-])(=O)C5=CC=C(NCC6CCOCC6)C(=C5)[N+]([O-])=O)OC7=CN=C8[NH]C=CC8=C7 | 104 | 95.1 | 99.3 | 62.7 | 43.7 | 12.6 | 8.25 | 7.7 | 7.49 | 7.18 | 5.72 | 124 | 105 | 123 | 76.2 | 70 | 20.3 | 11.1 | 7.11 | 6.79 | 5.86 | 4.71 | 102 | 90.8 | 88.3 | 53.8 | 38 | 16.5 | 8.07 | 6.59 | 6.67 | 5.3 | 4.75 |
| CC(C)C[C@@H](C(=O)N[C@H](C(=O)OC1CCCC1)c1ccccc1)[C@H](O)C(=O)NO | 125 | 119 | 123 | 136 | 120 | 122 | 117 | 89.2 | 105 | 104 | 38 | – | – | – | – | – | – | – | – | – | – | – | 113 | 113 | 111 | 114 | 102 | 106 | 101 | 72.8 | 83.4 | 65.9 | 23.2 |
| CCOC\1=C(/C(=O)NC2=CC=C(OC3=C(Cl)C(=NC=C3)N)C(=C2)F)C(=O)N(\C=C1)C4=CC=C(F)C=C4 | 95.5 | 97.7 | 98.4 | 94.7 | 91.1 | 76.8 | 63.3 | 50.6 | 32.8 | 28.9 | 15 | 122 | 118 | 105 | 95.9 | 98.4 | 91.1 | 75.5 | 53.3 | 39.7 | 27.5 | 6.35 | 92.1 | 83.9 | 96 | 90.1 | 82.4 | 76.4 | 57 | 40 | 33.9 | 22.9 | 6.07 |
| Oc1ccc(C2CNCCc3c2cc(O)c(O)c3Cl)cc1 (centres undefined) | 98 | 103 | 90 | 91.2 | 91.5 | 104 | 90.8 | 48.5 | 102 | 89.5 | 108 | 83 | 95 | 97.2 | 96.6 | 84.6 | 97.5 | 90.8 | 47.5 | 103 | 91.4 | 94.6 | 81.9 | 93.1 | 86.6 | 96.6 | 76.9 | 112 | 100 | 70.2 | 114 | 101 | 102 |
| CNC(=O)c1cc(Oc2ccc(NC(=O)Nc3ccc(Cl)c(C(F)(F)F)c3)c(F)c2)ccn1 | 83.2 | 91.4 | 91.1 | 78.4 | 84.3 | 80.6 | 39.7 | 43.7 | 35.3 | 25.9 | 25.1 | 97 | 101 | 112 | 114 | 73.8 | 89.4 | 44.1 | 44.1 | 31.6 | 27.2 | 21.8 | 86.9 | 96.7 | 82.1 | 84 | 61.7 | 73.6 | 47.3 | 31.7 | 26.9 | 18.8 | 20.3 |
| NC(=O)Cc1cccc(C(=O)c2ccccc2)c1N | 73 | 99.4 | 96.9 | 39.7 | 113 | 115 | 109 | 99.6 | 96 | 101 | 104 | 95.7 | 38.4 | 90.7 | 33.4 | 101 | 95.2 | 95 | 107 | 95.5 | 88.8 | 85.1 | 44.3 | 78.3 | 101 | 43.1 | 97.4 | 107 | 103 | 112 | 95.4 | 105 | 85.2 |
| CN1CCN(CC1)C/2=N/C3=CC=CC=C3NC4=C2C=C(C)S4 | 91 | 105 | 114 | 106 | 102 | 119 | 115 | 114 | 117 | 119 | 105 | 99.3 | 97.4 | 87.4 | 88.6 | 96.2 | 104 | 95.5 | 94.5 | 101 | 94.2 | 88.6 | 95.6 | 99.3 | 105 | 89.4 | 97.1 | 118 | 112 | 110 | 96 | 100 | 93.3 |
| Clc1ccc(C(Cn2ccnc2)OCc2ccc(Sc3ccccc3)cc2)c(Cl)c1 (centres undefined) | 88.8 | 74.9 | 99.2 | 96.4 | 98.2 | 79.4 | 93.6 | 77.9 | 82.1 | 87.1 | 81.1 | 110 | 104 | 109 | 108 | 116 | 106 | 105 | 92.2 | 77 | 92.7 | 95.8 | 101 | 95.7 | 107 | 122 | 130 | 100 | 103 | 93.5 | 81 | 96.8 | 75.7 |
| C[C@]12CCC(=O)C(O)=C1CC[C@@H]1[C@@H]2CC[C@]2(C)C(=O)CC[C@@H]12 | 98.8 | 113 | 110 | 114 | 120 | 117 | 113 | 121 | 108 | 101 | 104 | 98.2 | 128 | 123 | 106 | 122 | 116 | 127 | 111 | 103 | 114 | 112 | 119 | 120 | 120 | 130 | 107 | 112 | 121 | 123 | 107 | 116 | 111 |
| O=C(O)CCCc1ccc(N(CCCl)CCCl)cc1 | 96.5 | 108 | 112 | 119 | 120 | 129 | 125 | 136 | 120 | 102 | 55.5 | 95.7 | 91.8 | 126 | 122 | 114 | 126 | 121 | 119 | 124 | 101 | 20.2 | 97.4 | 113 | 120 | 111 | 128 | 129 | 133 | 122 | 137 | 113 | 36.8 |
| O=C1N\N=C(\C[C@@H]2CCN(C2)C(=O)C3CC3)N1C4=CC=C(C=C4)C5=CC=C6OC=CC6=C5 | 77.5 | 76.9 | 80.2 | 85.4 | 70.8 | 61.7 | 78.5 | 71.3 | 77.8 | 37.1 | 45.6 | 109 | 116 | 120 | 107 | 113 | 76.7 | 110 | 97.1 | 125 | 64.3 | 51.9 | 73.3 | 65 | 79.9 | 84.3 | 81.5 | 56.5 | 80.1 | 82.3 | 96.6 | 46.5 | 31.7 |
